Where “and” joins values, the source holds several entries; their conditions need not be identical. Equal entries are not always repeated. Toxic doses and inconclusive results are not listed. The calls were made as follows: active = survival T/C of 150% or more; inactive = T/C below 125% in these data.
Test system: CD2F1 mice, L1210 leukemia ip, survival T/C
Test: NCI In Vivo Anticancer Drug Screen. Data for tumor model L1210 Leukemia (intraperitoneal) in CD2F1 (CDF1) mice
Settings: higher = longer survival
Method in brief: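 Tumor-bearing mice (transplanted tumor) were split into treated and vehicle control groups, and the measured endpoint of each treated group was divided by that of its vehicle controls.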

[1] = endpoint: mean survival time, dose: 100.0 mg/kg/injection, schedule: Q04DX002 (ip), vehicle: saline with Tween-80
[2] = endpoint: mean survival time, dose: 100.0 mg/kg/injection, schedule: Q01DX001 (ip), vehicle: saline with Tween-80
[3] = endpoint: mean survival time, dose: 200.0 mg/kg/injection, schedule: Q01DX001 (ip), vehicle: saline with Tween-80
[4] = endpoint: mean survival time, dose: 400.0 mg/kg/injection, schedule: Q01DX001 (ip), vehicle: saline with Tween-80
[5] = endpoint: mean survival time, dose: 100.0 mg/kg/injection, schedule: Q04DX003 (ip), vehicle: saline with Tween-80
[6] = endpoint: mean survival time, dose: 200.0 mg/kg/injection, schedule: Q04DX003 (ip), vehicle: saline with Tween-80
[7] = endpoint: mean survival time, dose: 100.0 mg/kg/injection, schedule: Q01DX009 (ip), vehicle: saline with Tween-80
[8] = endpoint: mean survival time, dose: 100.0 mg/kg/injection, schedule: Q04DX003 (ip), vehicle: saline
[9] = endpoint: mean survival time, dose: 200.0 mg/kg/injection, schedule: Q01DX009 (ip), vehicle: saline with Tween-80
[10] = endpoint: mean survival time, dose: 400.0 mg/kg/injection, schedule: Q01DX009 (ip), vehicle: saline with Tween-80
[11] = endpoint: mean survival time, dose: 25.0 mg/kg/injection, schedule: Q01DX009 (ip), vehicle: saline
[12] = endpoint: mean survival time, dose: 50.0 mg/kg/injection, schedule: Q01DX009 (ip), vehicle: saline with Tween-80
[13] = endpoint: mean survival time, dose: 50.0 mg/kg/injection, schedule: Q01DX009 (ip), vehicle: saline
[14] = endpoint: mean survival time, dose: 100.0 mg/kg/injection, schedule: Q01DX009 (ip), vehicle: saline
[15] = endpoint: mean survival time, dose: 200.0 mg/kg/injection, schedule: Q01DX009 (ip), vehicle: saline

Measured: T/C

CCC(c1ccc(O)c(CN(CC)CC)c1)C(CC)c1ccc(O)c(CN(CC)CC)c1 (configuration not stated)
inactive: [1] 92 % of control | endpoint: mean survival time, dose: 200.0 mg/kg/injection, schedule: Q04DX002 (ip), vehicle: saline with Tween-80 92 % of control

CCCCCCCC/C=C/CCCCCC1CCCC(C)N1 (configuration not stated)
inactive: endpoint: mean survival time, dose: 50.0 mg/kg/injection, schedule: Q04DX002 (ip), vehicle: saline with Tween-80 98 % of control and 102 % of control | [1] 94 % of control

COc1ccccc1N=Nc1c(O)n(-c2ccc(Br)cc2)c(=S)n(-c2ccccc2)c1=O
inactive: [2] 93 % of control | [3] 93 % of control | [4] 87 % of control

CN(Cc1cnc2nc(N)nc(N)c2n1)c1ccc(C(=O)NC(CCC(=O)O)C(=O)NCC(=O)O)cc1 (configuration not stated)
inactive: endpoint: mean survival time, dose: 1.0 mg/kg/injection, schedule: Q01DX009 (ip), vehicle: sodium bicarbonate 103 % of control | endpoint: mean survival time, dose: 2.0 mg/kg/injection, schedule: Q01DX009 (ip), vehicle: sodium bicarbonate 109 % of control | endpoint: mean survival time, dose: 5.0 mg/kg/injection, schedule: Q01DX009 (ip), vehicle: sodium bicarbonate 102 % of control | endpoint: mean survival time, dose: 10.0 mg/kg/injection, schedule: Q01DX009 (ip), vehicle: sodium bicarbonate 108 % of control

O=C(CC(=O)c1ccccc1)c1ccccc1.O=C(CC(=O)c1ccccc1)c1ccccc1.[Cl][Sn][Cl]
inactive: [5] 90 % of control | [6] 94 % of control

Cc1cc(OCC2=NCCN2)c(C)c(C)c1Cl
inactive: endpoint: mean survival time, dose: 6.25 mg/kg/injection, schedule: Q04DX002 (ip), vehicle: saline with Tween-80 94 % of control | endpoint: mean survival time, dose: 12.5 mg/kg/injection, schedule: Q04DX002 (ip), vehicle: saline with Tween-80 94 % of control | endpoint: mean survival time, dose: 25.0 mg/kg/injection, schedule: Q04DX002 (ip), vehicle: saline with Tween-80 97 % of control

O=C(NC/C=C/Br)Nc1cnc2ccccc2c1
inactive: endpoint: mean survival time, dose: 25.0 mg/kg/injection, schedule: Q04DX003 (ip), vehicle: saline with Tween-80 102 % of control | endpoint: mean survival time, dose: 50.0 mg/kg/injection, schedule: Q04DX003 (ip), vehicle: saline with Tween-80 93 % of control

C=CCN(CC=C)C(=O)OCC
inactive: [7] 97 % of control | [8] 97 % of control | [9] 96 % of control | endpoint: mean survival time, dose: 200.0 mg/kg/injection, schedule: Q04DX003 (ip), vehicle: saline 95 % of control | endpoint: mean survival time, dose: 400.0 mg/kg/injection, schedule: Q04DX003 (ip), vehicle: saline 101 % of control

CC[C@@]1(O)C[C@H](OC2CC(N(C)C)C(OC3CC(O)C(OC4CCC(=O)C(C)O4)C(C)O3)C(C)O2)c2c(cc3c(c2O)C(=O)c2c(O)ccc(O)c2C3=O)[C@H]1C(=O)OC (some centres not stated)
inactive: endpoint: mean survival time, dose: 0.25 mg/kg/injection, schedule: Q01DX009 (ip), vehicle: water 101 % of control and 109 % of control | endpoint: mean survival time, dose: 0.5 mg/kg/injection, schedule: Q01DX009 (ip), vehicle: water 113 % of control and 117 % of control and 119 % of control | endpoint: mean survival time, dose: 1.0 mg/kg/injection, schedule: Q01DX009 (ip), vehicle: water 122 % of control | endpoint: mean survival time, dose: 4.0 mg/kg/injection, schedule: Q01DX009 (ip), vehicle: water 89 % of control

CC(C)N(CCNc1nc(C(Cl)(Cl)Cl)nc2ccc(Cl)cc12)C(C)C
inactive: [2] 103 % of control | [7] 96 % of control | [3] 94 % of control | [9] 96 % of control | [4] 103 % of control | [10] 95 % of control

O=C1C=CC(=O)N1CN1CCOCC1
inactive: endpoint: mean survival time, dose: 4.37 mg/kg/injection, schedule: Q01DX009 (ip), vehicle: saline 103 % of control | endpoint: mean survival time, dose: 8.75 mg/kg/injection, schedule: Q01DX009 (ip), vehicle: saline 91 % of control | endpoint: mean survival time, dose: 12.5 mg/kg/injection, schedule: Q04DX003 (ip), vehicle: saline 95 % of control

O=c1cn[nH]c2c(F)cccc12
inactive: endpoint: mean survival time, dose: 100.0 mg/kg/injection, schedule: Q01DX001 (ip), vehicle: other 97 % of control | endpoint: mean survival time, dose: 200.0 mg/kg/injection, schedule: Q01DX001 (ip), vehicle: other 104 % of control | endpoint: mean survival time, dose: 400.0 mg/kg/injection, schedule: Q01DX001 (ip), vehicle: other 98 % of control

O=C(O)Cn1nnc2ccccc21
inactive: endpoint: mean survival time, dose: 25.0 mg/kg/injection, schedule: Q01DX009 (ip), vehicle: saline with Tween-80 100 % of control | [11] 102 % of control | [12] 97 % of control | [13] 102 % of control | [7] 97 % of control | [14] 98 % of control | [9] 100 % of control | [15] 100 % of control

N#CCCSc1ccccc1
inactive: [5] 90 % of control | [6] 102 % of control | endpoint: mean survival time, dose: 400.0 mg/kg/injection, schedule: Q04DX003 (ip), vehicle: saline with Tween-80 96 % of control

O=c1oc2c(ccc3ccccc32)c(O)c1-c1ccccc1
inactive: [12] 103 % of control | [7] 103 % of control

COC(=O)C(CSCc1ccccc1)NC(=O)CCNC(=O)OCc1ccccc1 (configuration not stated)
inactive: endpoint: mean survival time, dose: 25.0 mg/kg/injection, schedule: Q01DX009 (ip), vehicle: Klucel (hydroxypropylcellulose) (HPC) 102 % of control | endpoint: mean survival time, dose: 50.0 mg/kg/injection, schedule: Q01DX009 (ip), vehicle: Klucel (hydroxypropylcellulose) (HPC) 102 % of control | endpoint: mean survival time, dose: 100.0 mg/kg/injection, schedule: Q01DX009 (ip), vehicle: Klucel (hydroxypropylcellulose) (HPC) 96 % of control | endpoint: mean survival time, dose: 200.0 mg/kg/injection, schedule: Q01DX009 (ip), vehicle: Klucel (hydroxypropylcellulose) (HPC) 102 % of control | endpoint: mean survival time, dose: 400.0 mg/kg/injection, schedule: Q01DX009 (ip), vehicle: Klucel (hydroxypropylcellulose) (HPC) 86 % of control

NCCc1cc(O)c(O)c(O)c1
inactive: endpoint: mean survival time, dose: 12.5 mg/kg/injection, schedule: Q01DX009 (ip), vehicle: saline 96 % of control and 100 % of control | [11] 100 % of control and 102 % of control | [13] 103 % of control and 106 % of control | [14] 122 % of control | [15] 119 % of control and 124 % of control | endpoint: mean survival time, dose: 400.0 mg/kg/injection, schedule: Q01DX009 (ip), vehicle: saline 119 % of control

O/N=C(/Cc1ccccc1)c1ccccc1
inactive: [2] 100 % of control | [3] 92 % of control | [4] 90 % of control

CCC(=O)O[C@H]1CC[C@H]2[C@@H]3[C@@H](C)CC4=CC(=O)CC[C@]4(C)[C@H]3CC[C@]12C
inactive: [2] 91 % of control | [3] 94 % of control | [4] 94 % of control

C/C(=N\N=C(/[Se])N1CC2CCC(CC2)C1)c1ccccn1
inactive: endpoint: median survival time, dose: 0.75 mg/kg/injection, schedule: Q01DX009 (ip), vehicle: Klucel (hydroxypropylcellulose) (HPC) 101 % of control | endpoint: median survival time, dose: 1.5 mg/kg/injection, schedule: Q01DX009 (ip), vehicle: Klucel (hydroxypropylcellulose) (HPC) 103 % of control | endpoint: median survival time, dose: 1.56 mg/kg/injection, schedule: Q01DX009 (ip), vehicle: Klucel (hydroxypropylcellulose) (HPC) 93 % of control and 101 % of control | endpoint: median survival time, dose: 3.0 mg/kg/injection, schedule: Q01DX009 (ip), vehicle: Klucel (hydroxypropylcellulose) (HPC) 102 % of control | endpoint: median survival time, dose: 3.12 mg/kg/injection, schedule: Q01DX009 (ip), vehicle: Klucel (hydroxypropylcellulose) (HPC) 97 % of control and 110 % of control | endpoint: median survival time, dose: 6.0 mg/kg/injection, schedule: Q01DX009 (ip), vehicle: Klucel (hydroxypropylcellulose) (HPC) 104 % of control | endpoint: median survival time, dose: 6.25 mg/kg/injection, schedule: Q01DX009 (ip), vehicle: Klucel (hydroxypropylcellulose) (HPC) 86 % of control | endpoint: median survival time, dose: 12.0 mg/kg/injection, schedule: Q01DX009 (ip), vehicle: Klucel (hydroxypropylcellulose) (HPC) 102 % of control | endpoint: median survival time, dose: 12.5 mg/kg/injection, schedule: Q01DX009 (ip), vehicle: Klucel (hydroxypropylcellulose) (HPC) 109 % of control | endpoint: median survival time, dose: 25.0 mg/kg/injection, schedule: Q01DX009 (ip), vehicle: Klucel (hydroxypropylcellulose) (HPC) 89 % of control

CCOC(=O)COc1c(C(C)(C)C)cc([N+](=O)[O-])c(C)c1[N+](=O)[O-]
inactive: [2] 105 % of control | [3] 111 % of control | [4] 96 % of control

O=C1CC(c2ccccc2)C(c2ccccc2)N1Cc1ccccc1 (configuration not stated)
inactive: endpoint: mean survival time, dose: 100.0 mg/kg/injection, schedule: Q04DX003 (ip), vehicle: other 93 % of control | endpoint: mean survival time, dose: 200.0 mg/kg/injection, schedule: Q04DX003 (ip), vehicle: other 93 % of control | endpoint: mean survival time, dose: 400.0 mg/kg/injection, schedule: Q04DX003 (ip), vehicle: other 97 % of control

CCOC1CC2c3ccccc3C1c1cccc[n+]12 (configuration not stated)
inactive: [8] 104 % of control

CC(CC(=O)O)C(NC(=O)OCc1ccccc1)C(=O)O (configuration not stated)
inactive: endpoint: mean survival time, dose: 75.0 mg/kg/injection, schedule: Q04DX003 (ip), vehicle: saline 101 % of control | endpoint: mean survival time, dose: 150.0 mg/kg/injection, schedule: Q04DX003 (ip), vehicle: saline 95 % of control | endpoint: mean survival time, dose: 300.0 mg/kg/injection, schedule: Q04DX003 (ip), vehicle: saline 95 % of control

COc1cc2ccc(/C(C)=N/OC(C)=O)cc2cc1OC
inactive: [7] 100 % of control | [9] 102 % of control | [10] 97 % of control

From PubChem BioAssay AID256 (DTP/NCI, 2004)
